From article PMC9569971, “New Oxazolo[5,4-d]pyrimidines as Potential Anticancer Agents: Their Design, Synthesis, and In Vitro Biological Activity Research” (International Journal of Molecular Sciences, 2022)
“Also recorded” adds a separate entry of the source. Marks after values point to notes of the source that are not given here.

What was measured:
[1] = tested on: HT29; design: method as in PMID 32759841; conditions: estimated based on data taken from reference; cited from earlier work
[2] = tested on: Jurkat T-cell; design: method as in PMID 32759841; conditions: cited from earlier work
[3] = tested on: murine fibroblasts (L929); assay: MTT viability assay, L929; format: cell-based; conditions: tested 1–500 µM
Protocol: (§1) When the confluence was greater than 70%, adherent cell lines were detached from the bottle surface with a TrypLE solution and then used in assays or reduced. The cells were collected into centrifuge tubes and centrifuged at 1000× g for 5 min at room temperature. The supernatant was removed to dry. The cell pellets were then resuspended in an appropriate medium. The cells were counted using a Bürker chamber and resuspended in 96-well plates to a cell density of 10,000 cells per well for MTT assay. For the rhodamine accumulation test and the detection of apoptosis assay, cells were seeded at a density of 30,000 per well. In the migration assay, cells were seeded at a density of 20,000 per well, and monolayer formation was awaited.
(§2) In this study, normal human dermal fibroblasts (NHDFs), breast cancer cells (MCF7), human lung adenocarcinoma cells (A549), murine fibroblasts (L929), colon adenocarcinoma cells (HT29), and colorectal adenocarcinoma cells (LoVo) were used. All cell lines were cultured in the recommended media. […] The human lung adenocarcinoma cell line A549 and breast cancer cell line MCF-7 were obtained from the ECACC. These cell lines were cultured in Eagle’s minimal essential medium (MEM). Murine fibroblast L929 (Sigma-Aldrich, Merck Group, Headquarters, Darmstadt, Germany; the European Collection of Authenticated Cell Cultures—ECACC) cells were grown in DMEM. […] All media were supplemented with 10% FBS and 100 µg/mL of penicillin–streptomycin.
(§3) All compounds were dissolved in DMSO and the reference drugs were dissolved in physiological saline to concentrations of 10 mM. Concentrations from 1 to 500 μM in the media recommended for the cell lines were prepared for the tests.
(§4) All of the synthesized derivatives were evaluated via the MTT assay. All cell lines were seeded into 96-well plates at a density of 10,000 cells per well. To allow the cells to adhere to the surface of the plates, they were incubated overnight before the application of the test compounds. […] The tests were performed for concentrations of 1, 5, 10, 25, 50, 100, 250, and 500 μM. The solutions of the test compounds were removed from the culture on the 96-well plates. […] The supernatant was then removed. The violet crystal was dissolved in isopropanol for 30 min by shaking. Absorbance was measured at 570 nm.
(§5) Biological assays were performed in three independent replicates, and each replicate used four samples. Three repetitions were made for the ELISA determinations. For the assessment of cytotoxicity, mathematical models were developed using the GraphPad PRISM software, based on which CC50 was determined. The values of CC50 were estimated based on nonlinear regression using the dependence of the biological effect on the molar concentrations of the compounds (four-parameter logistic model with Hill slope).

[4] = tested on: normal human dermal fibroblasts (NHDF); assay: MTT viability assay, NHDF; format: cell-based; conditions: tested 1–500 µM
Protocol: as §1, §2, §3, §4, §5

[5] = tested on: lung adenocarcinoma (A549); assay: MTT viability assay, A549; format: cell-based, human
Protocol: as §1, §2, §3, §4, §5

[6] = tested on: breast adenocarcinoma (MCF7); assay: MTT viability assay, MCF7; format: cell-based, human; conditions: MCF7, MTT, tested 1–500 µM
Protocol: as §1, §2, §3, §4, §5

[7] = tested on: primary colon adenocarcinoma (HT29); assay: MTT viability assay, HT29; format: cell-based, human
Protocol: as §1, §2, §3, §4, §5

[8] = molecular target: T1, P-glycoprotein (P-gp) in HT29 cells (Homo sapiens, UniProt P08183); assay: Rhodamine-123 (Rh-123) accumulation assay; format: cell-based; conditions: HT29, 24 h, over all tested concentrations (1–20 μM)
T1 construct: evaluate their effects on the efflux activity of P-gp in HT29 cells; host or cells: HT29 colon adenocarcinoma cells
Protocol: as §1
The level of significance was set at p < 0.05.

[9] = tested on: HT29 primary colon adenocarcinoma cells; assay: Detection of apoptosis (Annexin V FITC / propidium iodide); format: cell-based, human; design: unit not given here; conditions: 24 h
Protocol: as §1, with “All cell lines were grown in 5% CO2 at 95% humidity and 37 °C, with both morphology and confluence assessed twice per week. When” for “When”
HT29 primary colon adenocarcinoma cells were grown in 96-well plates for 24 h. The 5 selected derivatives were added at concentrations of 1, 2, 5, and 10 µM, and then incubated for 24 h. The mixture of Annexin V conjugated with fluorescein and propidium iodide in PBS with Mg^2+ and Ca^2+ ions (Thermo Fisher Scientific, Waltham, MA, USA) was then applied. The incubation lasted 20 min at 37 °C. Pictures were taken using a fluorescence microscope. Thirteen images were taken from each well using an EVOS FL fluorescence microscope, with three replications for each compound. The open ImageJ space was used to analyze the number of cells. The Thermo Fisher Dead Cell Apoptosis Kit with Annexin V FITC and Propidium Iodide (PI) detects phosphatidylserine extrusion in apoptotic cells using Annexin V conjugated with a green fluorescent FITC dye and dead cells stained by PI with red fluorescence.

T1 sequence (P08183 whole entry): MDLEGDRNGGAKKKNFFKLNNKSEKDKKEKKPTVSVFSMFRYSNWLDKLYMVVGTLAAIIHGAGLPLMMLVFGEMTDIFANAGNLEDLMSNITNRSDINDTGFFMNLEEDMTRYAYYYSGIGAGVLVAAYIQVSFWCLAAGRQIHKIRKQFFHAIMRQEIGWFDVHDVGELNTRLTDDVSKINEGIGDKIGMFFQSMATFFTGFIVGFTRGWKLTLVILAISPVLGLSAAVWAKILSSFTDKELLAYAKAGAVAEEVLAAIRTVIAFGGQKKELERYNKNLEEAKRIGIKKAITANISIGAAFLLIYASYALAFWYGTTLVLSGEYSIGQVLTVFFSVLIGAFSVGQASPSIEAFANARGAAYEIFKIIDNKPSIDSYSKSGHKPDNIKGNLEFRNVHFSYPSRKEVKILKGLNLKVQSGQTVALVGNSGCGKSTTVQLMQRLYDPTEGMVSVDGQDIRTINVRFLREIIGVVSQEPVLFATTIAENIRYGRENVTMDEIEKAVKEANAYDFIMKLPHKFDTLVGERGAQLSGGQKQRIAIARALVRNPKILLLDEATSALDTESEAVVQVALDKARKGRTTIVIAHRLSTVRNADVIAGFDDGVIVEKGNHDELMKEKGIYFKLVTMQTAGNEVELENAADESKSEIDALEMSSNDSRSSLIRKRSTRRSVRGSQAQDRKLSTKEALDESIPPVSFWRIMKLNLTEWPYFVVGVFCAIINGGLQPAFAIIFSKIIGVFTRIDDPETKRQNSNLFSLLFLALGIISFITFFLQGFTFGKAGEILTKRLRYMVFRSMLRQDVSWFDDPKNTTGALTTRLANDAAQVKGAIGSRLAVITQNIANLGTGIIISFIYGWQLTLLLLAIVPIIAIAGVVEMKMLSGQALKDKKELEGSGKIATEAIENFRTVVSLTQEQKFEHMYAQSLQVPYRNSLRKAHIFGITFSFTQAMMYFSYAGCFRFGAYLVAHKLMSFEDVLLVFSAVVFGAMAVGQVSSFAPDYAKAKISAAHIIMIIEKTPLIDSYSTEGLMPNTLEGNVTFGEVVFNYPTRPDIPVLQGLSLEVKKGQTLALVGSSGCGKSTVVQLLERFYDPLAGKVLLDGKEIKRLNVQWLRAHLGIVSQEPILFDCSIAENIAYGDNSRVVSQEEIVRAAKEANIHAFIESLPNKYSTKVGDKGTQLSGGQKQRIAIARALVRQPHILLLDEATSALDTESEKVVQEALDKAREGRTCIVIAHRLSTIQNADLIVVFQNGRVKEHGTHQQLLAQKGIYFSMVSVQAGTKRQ

For `Cc1nc(NCCCN(C)C)c2nc(-c3c(C)noc3N)oc2n1` [SCM9], the CC50 [1] is listed as 39.1 ± 7.79 µM, the “expression of apoptosis-modulating proteins” value ([2]; Jurkat T-cell model) is listed as “did not alter” and the “expression of MAPK pathway components JNK, p38α, and p38β” value [2] is listed as “increased”.

In the case of `CNc1ncnc2oc(-c3c(C)noc3N)nc12` [Compound 3a, 2-(5-Amino-3-methylisoxazol-4-yl)-7-N-methylaminooxazolo[5,4-d]pyrimidine], the “CC50 ± SD” value [3] is reported as “no toxic activity; also recorded: Non-toxic ^b”, the “CC50 ± SD” value [4] is reported as “Non-toxic” and the “SI (selectivity index)” value ([5]; CC50 NHDF / CC50 A549) is reported as >>1 ^c. For the same compound, the CC50 ([5]; Homo sapiens, A549, MTT, tested 1–500 µM) was 245 ± 19 µM, the “CC50 ± SD” value [6] was “no cytotoxic activity” and the “SI (selectivity index)” value ([7]; CC50 NHDF / CC50 HT29) was >>1. The CC50 ([7]; Homo sapiens, HT-29, HT29, MTT, tested 1–500 µM) was 159 ± 12.1 µM, the “intracellular increase in rhodamine accumulation” value [8] was “no intracellular increase” and the apoptosis mean ([9]; 1 μM) was 6.89. The late apoptosis mean ([9]; 1 μM) was 11.16, the necrosis mean ([9]; 1 μM) was 4.43 and the “percent live (viable) cells” value ([9]; 1 μM) was 77.51. For the same compound, the apoptosis mean ([9]; 2 μM) was 5.35, the late apoptosis mean ([9]; 2 μM) was 11.15 and the necrosis mean ([9]; 2 μM) was 9.07. For the same compound, the “percent live (viable) cells” value ([9]; 2 μM) was 74.42, the apoptosis mean ([9]; 5 μM) was 9.38 and the late apoptosis mean ([9]; 5 μM) was 11.51. For the same compound, the necrosis mean ([9]; 5 μM) was 2.76, the “percent live (viable) cells” value ([9]; 5 μM) was 76.34 and the apoptosis mean ([9]; 10 μM) was 10.99. For the same compound, the late apoptosis mean ([9]; 10 μM) was 12.07, the necrosis mean ([9]; 10 μM) was 5.55 and the “percent live (viable) cells” value ([9]; 10 μM) was 71.40.
